According to patent publication US20160278375A1, “BISCATIONIC AND TRISCATIONIC AMPHIPHILES AS ANTIMICROBIAL AGENTS” (Temple University of the Commonwealth System of Higher …, priority 2013, published 2016):
Like-named read-outs stand apart in the source and are kept apart here.

Tests used:
[1] = tested on: S. aureus, E. faecalis, E. coli and P. aeruginosa; experiment: MIC determination, statements across the bacteria tested; type: cell-based
Description: (§1) For the compounds above, respective minimum inhibitory concentration (MIC) values against the Gram-positive S. aureus, E. faecalis, Gram-negative E. coli and P. aeruginosa were determined, respectively, by standard methods. […] Cell viability was verified by serial dilution and plating on MH agar. Both aqueous and fresh media positive controls were performed for each trial. Overnight bacterial cultures of Staphylococcus aureus (SH1000), Enterococcus faecalis (OG1RF), Escherichia coli (MC4100), and Pseudomonas aeruginosa (PAO1-WT) were grown in Mueller-Hinton broth at 37° C., with all but E. faecalis under shaking Overnight cultures were diluted to approximately 10^6 cfu/mL as determined by OD measurement at 640 nm and plating on MH agar.
(§2) Each compound was serially diluted two-fold with water from 1 mM down to 1 μM yielding twelve dilutions per compound. In triplicate, 100 µL of each dilution were pipetted into the appropriate well of a 96-well microtiter plate, and then […] of overnight bacterial culture diluted to ca. 10^6 cfu/mL were inoculated into each well. Microtiter plates were incubated at 37° C. for 72 hours. Up to seven compounds were tested against one bacterial species at twelve decreasing concentrations per 96-well plate.

[2] = tested on: Pseudomonas aeruginosa (PAO1-WT); experiment: MIC determination by two-fold serial dilution in 96-well microtiter plates; type: cell-based
Description: as §1, §2

[3] = tested on: Escherichia coli (MC4100); experiment: as above; type: cell-based; settings: for MIC: read-out: MIC, Gram negative E. coli
Description: as §1, §2

[4] = tested on: Staphylococcus aureus (SH1000); experiment: as above; type: cell-based
Description: as §1, §2

[5] = tested on: Enterococcus faecalis (OG1RF); experiment: as above; type: cell-based
Description: as §1, §2

water solubility = type: physicochemical
[6] = Pseudomonas aeruginosa, PAO1, Table 1, 37° C., 72 hours, read-out: MIC, Gram negative P. aeruginosa
[7] = Staphylococcus aureus, Table 1, 37° C., 72 hours, read-out: MIC, Gram positive S. aureus
[8] = Enterococcus faecalis, Table 1, 37° C., 72 hours, read-out: MIC, Gram positive E. faecalis
[9] = Escherichia coli, Table 1, 37° C., 72 hours

CCCCCCCCCCCC[N+](C)(C)CC[N+](C)(C)CCCCCCCCCC [Compound (12, 2, 10)]
MIC ([1]; S. aureus, E. faecalis, E. coli, P. aeruginosa, read-out: MIC values against all four bacterial species tested): ≤ 2 µM

N-alkyl-N-benzyl-N,N-dimethylammonium chloride [benzalkonium chloride, reference compound]
MIC ([2]; Table 1, 37° C., 72 hours, read-out: MIC, Gram negative P. aeruginosa): 63 µM | MIC ([3]; Table 1, 37° C., 72 hours): 32 µM | MIC ([4]; Table 1, 37° C., 72 hours, read-out: MIC, Gram positive S. aureus): 8 µM | MIC ([5]; Table 1, 37° C., 72 hours, read-out: MIC, Gram positive E. faecalis): 8 µM | fold less activity ([1]; compared with compound (12,2,10)): 4-32 fold

CCCCCCCCCC[N+](C)(C)CC[N+](C)(C)CCCCCCCCCC [(10, 2, 10)]
MIC [2, 6]: 8 µM | MIC ([3]; Escherichia coli, 72 h): 16 µM | MIC [4, 7]: 2 µM | MIC [5, 8]: 8 µM

CCCCCCCCCCCC[N+](C)(C)CC[N+](C)(C)CCCCCCCC [(12, 2, 8)]
MIC [2, 6]: 4 µM | MIC ([3]; Escherichia coli, 72 h): 4 µM | MIC [4, 7]: 1 µM | MIC [5, 8]: 4 µM

CCCCCCCCCCCCCCCCCCCC[N+](C)(C)CC[N+](C)(C)CCCCCCCCCC [(20, 2, 10)]
MIC [2, 6]: 16 µM | MIC ([3]; Escherichia coli, 72 h): 16 µM | MIC [4, 7]: 4 µM | MIC [5, 8]: 16 µM

CCCCCCCCCCCCCCCCCCCC[N+](C)(C)CC[N+](C)(C)CCCCCCCC [Compound (20, 2, 8)]
water solubility (water solubility): fully water soluble

CCCCCCCCCCCCCCCCCC[N+](C)(C)CC[N+](C)(C)CCCCCCCCCCCCCCCC [(18, 2, 16)]
MIC [2, 6]: 63 µM | MIC ([3]; Escherichia coli, 72 h): 32 µM | MIC [4, 7]: 16 µM | MIC [5, 8]: 32 µM

CCCCCCCCCCCCCCCC[N+](C)(C)CCN(C)C [(16, 2, 0)]
MIC [2, 6]: 16 µM | MIC [3, 9]: 16 µM | MIC [4, 7]: 1 µM | MIC [5, 8]: 16 µM

CCCCCCCCCC[N+](C)(C)CCN(C)C [(10, 2, 0)]
MIC [2, 6]: 250 µM | MIC [3, 9]: 250 µM | MIC [4, 7]: 63 µM | MIC [5, 8]: 250 µM

CCCCCCCCCCCCCC[N+](C)(C)CC[N+](C)(C)CCCCCCCCCC [(14, 2, 10)]
MIC [2, 6]: 4 µM | MIC ([3]; Escherichia coli, 72 h): 2 µM | MIC [4, 7]: 4 µM | MIC [5, 8]: 1 µM

CCCCCCCCCCCCCC[N+](C)(C)CCN(C)C [(14, 2, 0)]
MIC [2, 6]: 125 µM | MIC [3, 9]: 16 µM | MIC [4, 7]: 2 µM | MIC [5, 8]: 8 µM

CCCCCCCCCCCCCCCC[N+](C)(C)CC[N+](C)(C)CCCCCCCCCC [(16, 2, 10)]
MIC [2, 6]: 32 µM | MIC ([3]; Escherichia coli, 72 h): 8 µM | MIC [4, 7]: 4 µM | MIC [5, 8]: 4 µM

CCCCCCCCCCCCCC[N+](C)(C)CC[N+](C)(C)CCCCCCCCCCCC [(14, 2, 12)]
MIC [2, 6]: 8 µM | MIC ([3]; Escherichia coli, 72 h): 2 µM | MIC [4, 7]: 1 µM | MIC [5, 8]: 2 µM

CCCCCCCCCCCCCCCC[N+](C)(C)CC[N+](C)(C)CCCCCCCCCCCC [(16, 2, 12)]
MIC [2, 6]: 32 µM | MIC ([3]; Escherichia coli, 72 h): 8 µM | MIC [4, 7]: 8 µM | MIC [5, 8]: 4 µM

CCCCCCCCCCCCCCCCCC[N+](C)(C)CC[N+](C)(C)CCCCCCCC [Compound (18, 2, 8)]
water solubility (water solubility): fully water soluble

CCCCCCCCCCCCCCCCCC[N+](C)(C)CC[N+](C)(C)CCCCCCCCCCCCCCCCCC [(18, 2, 18)]
MIC [2, 6]: 500 µM | MIC ([3]; Escherichia coli, 72 h): 250 µM | MIC [4, 7]: 32 µM | MIC [5, 8]: 63 µM

CCCCCCCCCC[N+](C)(C)CC[N+](C)(C)CCCCCCCC [(10, 2, 8)]
MIC [2, 6]: 125 µM | MIC ([3]; Escherichia coli, 72 h): 63 µM | MIC [4, 7]: 8 µM | MIC [5, 8]: 63 µM

CCCCCCCCCCCC[N+](C)(C)CC[N+](C)(C)CCCCCCCCCC [(12, 2, 10)]
MIC [2, 6]: 2 µM | MIC ([3]; Escherichia coli, 72 h): 2 µM | MIC [4, 7]: 1 µM | MIC [5, 8]: 2 µM

CCCCCCCCCCCCCCCCCC[N+](C)(C)CCN(C)C.[Br-] [Compound (18, 2, 0)]
MIC [2, 6]: 63 µM | MIC ([3]; Table 1, 37° C., 72 hours): 63 µM | MIC ([1]; S. aureus and E. faecalis, read-out: MIC values versus Gram positive bacteria): 2 to 4 µM

CCCCCCCCCCCCCCCCCCCC[N+](C)(C)CC[N+](C)(C)CCCCCCCCCCCCCCCC [(20, 2, 16)]
MIC [2, 6]: 63 µM | MIC ([3]; Escherichia coli, 72 h): 63 µM | MIC [4, 7]: 16 µM | MIC [5, 8]: 32 µM

CCCCCCCCCC[N+](C)(C)CCN(C)CC[N+](C)(C)CCCCCCCCCC.[Br-].[Br-] [10, 2, 0, 2, 10]
MIC ([2]; Table 2, trisamine compounds, read-out: MIC P aeruginosa): 32 µM | MIC E. coli ([3]; Table 2, trisamine compounds): 8 µM | MIC ([4]; Table 2, trisamine compounds, read-out: MIC S. aureus): 2 µM | MIC ([5]; Table 2, trisamine compounds, read-out: MIC E faecalis): 8 µM
